The results in this text go back to patent US9777017B2, “Tricyclic fused thiophene derivatives as JAK inhibitors” (Incyte Corporation, priority 2012, dated 2017).

What all share (type): biochemical
For test [1], the system named is human JAK1. The test can be described thus: In vitro JAK kinase assay (HTRF, phosphorylation of a biotinylated peptide), JAK1. As to conditions: ratio of IC50s, 1 mM ATP. The method, then:
(§1) Compounds herein were tested for inhibitory activity of JAK targets according to the following in vitro assay described in Park et al., Analytical Biochemistry 1999, 269, 94-104. The catalytic domains of human JAK1 (a.a. 837-1142), JAK2 (a.a. 828-1132) and JAK3 (a.a. 781-1124) were expressed using baculovirus in insect cells and purified. The catalytic activity of JAK1, JAK2 or JAK3 was assayed by measuring the phosphorylation of a biotinylated peptide. The phosphorylated peptide was detected by homogenous time resolved fluorescence (HTRF). IC50s of compounds were measured for each kinase in the 40 μL reactions that contain the enzyme, ATP and 500 nM peptide in 50 mM Tris (pH 7.8) buffer with 100 mM NaCl, 5 mM DTT, and 0.1 mg/mL (0.01%) BSA. For the 1 mM IC50 measurements, ATP concentration in the reactions was 1 mM. Reactions were carried out at room temperature for 1 hour and then stopped with 20 μL 45 mM EDTA, 300 nM SA-APC, 6 nM Eu-Py20 in assay buffer (Perkin Elmer, Boston, Mass.). Binding to the Europium labeled antibody took place for 40 minutes and HTRF signal was measured on a PHERA star plate reader (BMG, Cary, N.C.). The Example compounds were each tested in the Example A assay (see Table 1 for data for the compounds of the examples as tested by the assay of Example A at 1 mM ATP).
(In general: Time-resolved FRET reads energy transfer from a long-lived donor to a nearby acceptor.)

For test [2], the target named is human JAK1 (Homo sapiens, UniProt P23458). The description is as above. As to conditions: 1 mM ATP. The method, then:
as §1

Another test has as its target human JAK2 (Homo sapiens (Human), UniProt O60674). The test is described as follows: In vitro JAK kinase assay (HTRF, phosphorylation of a biotinylated peptide), JAK2. Further details: key to JAK2 IC50 (nM): +indicates an IC50 of ≦100 nM; ++indicates an IC50 of ≦1000 nM; +++indicates an IC50 of ≦2000 nM; ++++indicates an IC50 of >2000 nM; +++++indicates that the IC50 was greater than the highest concentration tested. The conditions noted are these: 1 mM ATP. The method, then:
as §1

A word on the IC50: it is the concentration at which inhibition is half-maximal.

Bounds are passed on as bounds.

human JAK2, sequence (O60674 828-1132): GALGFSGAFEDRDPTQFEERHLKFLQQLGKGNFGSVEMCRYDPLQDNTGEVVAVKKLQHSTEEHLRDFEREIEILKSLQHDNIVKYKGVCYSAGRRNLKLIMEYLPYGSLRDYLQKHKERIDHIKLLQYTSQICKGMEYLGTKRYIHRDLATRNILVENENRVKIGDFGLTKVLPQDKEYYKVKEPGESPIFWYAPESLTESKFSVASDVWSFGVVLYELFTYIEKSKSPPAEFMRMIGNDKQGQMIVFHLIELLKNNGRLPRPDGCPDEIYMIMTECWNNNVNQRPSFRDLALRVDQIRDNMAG

Take `CC(C)OC(=O)NC[C@H]1CC[C@H](n2c([C@@H](C)O)nc3cnc4ccsc4c32)CO1` [Example 76, Isopropyl [((2R,5S)-5-{2-[(1R)-1-hydroxyethyl]-1H-imidazo[4,5-d]thieno[3,2-b]pyridin-1-yl}tetrahydro-2H-pyran-2-yl)methyl]carbamate]: the JAK2/JAK1 with human JAK1 [1] is above 10. The 50% inhibitory concentration (IC50) on human JAK1 [2] is at most 100 nM; against human JAK2 it was at most 2000 nM.
As to `C[C@@H](O)c1nc2cnc3ccsc3c2n1[C@H]1CCC(CO)OC1` (stereo partly drawn) [Example 19, (1R)-1-{1-[(3S)-6-(Hydroxymethyl)tetrahydro-2H-pyran-3-yl]-1H-imidazo[4,5-d]thieno[3,2-b]pyridin-2-yl}ethanol], the JAK2/JAK1 in the test with human JAK1 [1] is listed as above 10. The same molecule showed an IC50 against human JAK1 [2] of at most 1000 nM. Besides, on human JAK2, the “JAK2 IC50 (nM)” value was “+++++”.
Regarding `CCOC(=O)NC[C@H]1CC[C@H](n2c([C@@H](C)O)nc3cnc4ccsc4c32)CC1` [Example 82, Ethyl [(trans-4-{2-[(1R)-1-hydroxyethyl]-1H-imidazo[4,5-d]thieno[3,2-b]pyridin-1-yl}cyclohexyl)methyl]carbamate], in the test on human JAK1 [1], the JAK2/JAK1 is above 10. Besides, the 50% inhibitory concentration (IC50) is at most 100 nM against human JAK1 [2] and at most 1000 nM against human JAK2.
Consider `C[C@@H](O)c1nc2cnc3ccsc3c2n1[C@@H]1CC[C@@H](CC#N)OC1` [Example 44, ((2S,5R)-5-{2-[(1R)-1-Hydroxyethyl]-1H-imidazo[4,5-b]thieno[3,2-b]pyridin-1-yl}tetrahydro-2H-pyran-2-yl)acetonitrile], for which the JAK2/JAK1 in the test on human JAK1 [1] is recorded as above 10. This molecule showed an IC50 at human JAK1 [2] of at most 1000 nM. Besides, at human JAK2, the “JAK2 IC50 (nM)” value was “+++++”.
In the same order, the values of `N#CC[C@H]1CC[C@H](n2c(C3CNC3)nc3cnc4ccsc4c32)CC1` [Example 28, [trans-4-(2-Azetidin-3-yl-1H-imidazo[4,5-d]thieno[3,2-b]pyridin-1-yl)cyclohexyl]acetonitrile] are above 7, at most 2000 nM and “+++++”.
In the same order, the values of `C[C@@H](O)c1nc2cnc3ccsc3c2n1C1CCN(CC(F)(F)F)CC1` [Example 15, (1R)-1-{1-[1-(2,2,2-Trifluoroethyl)piperidin-4-yl]-1H-imidazo[4,5-d]thieno[3,2-b]pyridin-2-yl}ethanol] are above 9, at most 2000 nM and “+++++”.
In the same order, the values of `C[C@@H](O)c1nc2cnc3ccsc3c2n1[C@H]1CC[C@H](CNC(=O)OC2CCOC2)CC1` (stereo partly drawn) [Example 85, Tetrahydrofuran-3-yl [(trans-4-{2-[(1R)-1-hydroxyethyl]-1H-imidazo[4,5-d]thieno[3,2-b]pyridin-1-yl}cyclohexyl)methyl]carbamate] are above 10, at most 100 nM and “+++++”.
For `C[C@@H](O)c1nc2cnc3ccsc3c2n1[C@H]1CC[C@H](CC#N)OC1` [Example 20, ((2R,5S)-5-{2-[(1R)-1-Hydroxyethyl]-1H-imidazo[4,5-d]thieno[3,2-b]pyridin-1-yl}tetrahydro-2H-pyran-2-yl)acetonitrile], in the test on human JAK1 [1], the JAK2/JAK1 is above 10. In addition, the IC50 was at most 100 nM against human JAK1 [2] and at most 1000 nM at human JAK2.
For the molecule `C[C@@H](O)c1nc2cnc3ccsc3c2n1[C@H]1CCCN(C(=O)CCc2cccnc2)C1` [Example 54, (1R)-1-{1-[(3S)-1-(3-Pyridin-3-ylpropanoyl)piperidin-3-yl]-1H-imidazo[4,5-d]thieno[3,2-b]pyridin-2-yl}ethanol], in the test with human JAK1 [1], the JAK2/JAK1 is listed as above 10. At human JAK1 [2], this molecule showed an IC50 of at most 1000 nM. Moreover, the “JAK2 IC50 (nM)” value at human JAK2 is “+++++”.
Regarding `C[C@@H](O)c1nc2cnc3ccsc3c2n1[C@H]1CCN(CCC#N)C1` [Example 62, 3-((3S)-3-{2-[(1R)-1-Hydroxyethyl]-1H-imidazo[4,5-d]thieno[3,2-b]pyridin-1-yl}pyrrolidin-1-yl)propanenitrile], the JAK2/JAK1 in the test with human JAK1 [1] is on record as above 10. Moreover, the figures for the 50% inhibitory concentration (IC50) against human JAK1 [2] and against human JAK2 were at most 1000 nM and above 2000 nM, respectively.
For “((1R,2R,4S)-2-Hydroxy-4-{2-[(1R)-1-hydroxyethyl]-1H-imidazo[4,5-d]thieno[3,2-b]pyridin-1-yl}cyclohexyl)acetonitrile and ((1S,2S,4R)-2-hydroxy-4-{2-[(1R)-1-hydroxyethyl]-1H-imidazo[4,5-d]thieno[3,2-b]pyridin-1-yl}cyclohexyl)acetonitrile [36 (first peak)]”, in that order: above 10, at most 100 nM and above 2000 nM.
For “[(1R,2S,4S)-4-(2-Ethyl-1H-imidazo[4,5-d]thieno[3,2-b]pyridin-1-yl)-2-hydroxycyclohexyl]acetonitrile and [(1S,2R,4R)-4-(2-ethyl-1H-imidazo[4,5-d]thieno[3,2-b]pyridin-1-yl)-2-hydroxycyclohexyl]acetonitrile [40 (first peak)]”, in that order: above 10, at most 100 nM and at most 1000 nM.
In the same order, the values of `N#CCc1nc2cnc3ccsc3c2n1[C@H]1CC[C@H](CC#N)CC1` [Example 90, {1-[trans-4-(Cyanomethyl)cyclohexyl]-1H-imidazo[4,5-d]thieno[3,2-b]pyridin-2-yl}acetonitrile] are above 10, at most 100 nM and at most 1000 nM.
In the case of `CNC(C)c1nc2cnc3ccsc3c2n1[C@H]1CC[C@H](CC#N)OC1` (stereo partly drawn) [Example 70, ((2R,5S)-5-{2-[1-(Methylamino)ethyl]-1H-imidazo[4,5-d]thieno[3,2-b]pyridin-1-yl}tetrahydro-2H-pyran-2-yl)acetonitrile], the JAK2/JAK1 with human JAK1 [1] is listed as above 10. For the same molecule, the IC50 was at most 1000 nM against human JAK1 [2] and above 2000 nM on human JAK2.
For `CC(N)c1nc2cnc3ccsc3c2n1[C@H]1CC[C@H](CC#N)OC1.O=C(O)C(F)(F)F` (stereo partly drawn) [Example 68, {(2R,5S)-5-[2-(1-Aminoethyl)-1H-imidazo[4,5-d]thieno[3,2-b]pyridin-1-yl]tetrahydro-2H-pyran-2-yl}acetonitrile trifluoroacetate], in that order: above 10, at most 100 nM and at most 2000 nM.
Take `C[C@@H](O)c1nc2cnc3ccsc3c2n1C1CCN(CC#N)CC1.O=C(O)C(F)(F)F` [Example 61, (4-{2-[(1R)-1-Hydroxyethyl]-1H-imidazo[4,5-d]thieno[3,2-b]pyridin-1-yl}piperidin-1-yl)acetonitrile trifluoroacetate]: the JAK2/JAK1 with human JAK1 [1] is above 10. For the same molecule, the IC50 on human JAK1 [2] is at most 1000 nM. Moreover, the “JAK2 IC50 (nM)” value on human JAK2 is listed as “+++++”.
Take `Cc1nc2cnc3ccsc3n2c1-c1ccc(CC#N)cc1` [Example 33, [4-(7-Methylimidazo[1,2-a]thieno[3,2-e]pyrazin-8-yl)phenyl]acetonitrile]: the JAK2/JAK1 in the test on human JAK1 [1] was above 7. Further, the 50% inhibitory concentration (IC50) is at most 100 nM against human JAK1 [2] and at most 1000 nM against human JAK2.
As to `CC(=O)NC(C)c1nc2cnc3ccsc3c2n1[C@H]1CC[C@H](CC#N)OC1` (stereo partly drawn) [Example 69, N-(1-{1-[(3S,6R)-6-(Cyanomethyl)tetrahydro-2H-pyran-3-yl]-1H-imidazo[4,5-d]thieno[3,2-b]pyridin-2-yl}ethyl)acetamide], the JAK2/JAK1 with human JAK1 [1] is on record as above 10. Besides, on human JAK1 [2], the IC50 is at most 1000 nM. For the same molecule, at human JAK2, the “JAK2 IC50 (nM)” value is “+++++”.
On to `C[C@@H](O)c1nc2cnc3ccsc3c2n1[C@H]1CCN(C(=O)CC#N)C1` [Example 63, 3-((3S)-3-{2-[(1R)-1-Hydroxyethyl]-1H-imidazo[4,5-d]thieno[3,2-b]pyridin-1-yl}pyrrolidin-1-yl)-3-oxopropanenitrile], for which the JAK2/JAK1 in the test with human JAK1 [1] is recorded as above 6. Moreover, on human JAK1 [2], the half-inhibitory concentration (IC50) is at most 2000 nM. Moreover, the “JAK2 IC50 (nM)” value on human JAK2 is “+++++”.
Regarding `N#CC[C@H]1CC[C@H](n2/c(=N/C#N)[nH]c3cnc4ccsc4c32)CC1.O=C(O)C(F)(F)F` [Example 25, {(2E)-1-[trans-4-(Cyanomethyl)cyclohexyl]-1,3-dihydro-2H-imidazo[4,5-d]thieno[3,2-b]pyridin-2-ylidene}cyanamide trifluoroacetate], the JAK2/JAK1 in the test with human JAK1 [1] is reported as above 6. Further, the figures for the IC50 against human JAK1 [2] and on human JAK2 were at most 100 nM and at most 1000 nM, respectively.
For `CCOC(=O)NC[C@H]1CC[C@H](n2c(CC#N)nc3cnc4ccsc4c32)CC1` [Example 87, Ethyl ({trans-4-[2-(cyanomethyl)-1H-imidazo[4,5-d]thieno[3,2-b]pyridin-1-yl]cyclohexyl}methyl)carbamate], in that order: above 10, at most 100 nM and at most 1000 nM.
